Data: patent US20170348288A1, “DOSING REGIMENS FOR BETA-3 ADRENOCEPTOR AGONISTS AND ANTI-MUSCARINIC AGENTS FOR THE TREATMENT AND PREVENTION OF LOWER URINARY TRACT SYMPTOMS AND OVERACTIVE BLADDER” (VELICEPT THERAPEUTICS, INC., priority 2016, published 2017)

Legend:
beta-3 adrenoceptor [1] = biological target: T1, beta-3 adrenoceptor (Rattus norvegicus, UniProt P26255); test: Pilot cumulative concentration response curves to determine EC90 for inhibition of EFS-induced contraction in rat isolated bladder; conditions: rat isolated bladder strips, EFS 15 Hz, CCRC half-log increments; calculated values; read-out: EC90 concentration to inhibit EFS-induced contraction in rat isolated bladder
T1 construct: The bladder longitudinal smooth muscle, with the urothelium still attached were mounted in 25 ml organ baths; from tissue; host or cells: rat urinary bladder (longitudinal smooth muscle with urothelium), male CD rats
T1 sequence (P26255 whole entry): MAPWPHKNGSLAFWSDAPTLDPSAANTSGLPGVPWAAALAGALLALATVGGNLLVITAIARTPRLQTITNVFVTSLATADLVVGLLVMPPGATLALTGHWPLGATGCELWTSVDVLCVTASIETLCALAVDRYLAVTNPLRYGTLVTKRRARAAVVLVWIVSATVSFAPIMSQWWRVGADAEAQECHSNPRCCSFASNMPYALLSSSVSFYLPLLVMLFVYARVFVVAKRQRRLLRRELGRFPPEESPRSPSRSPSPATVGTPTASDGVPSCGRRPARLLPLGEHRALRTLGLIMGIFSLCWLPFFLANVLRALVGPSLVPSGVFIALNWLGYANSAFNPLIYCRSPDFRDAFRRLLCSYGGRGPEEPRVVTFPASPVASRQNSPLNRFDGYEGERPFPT
Experimental: Macroscopically normal bladders from Male CD rats (220-250 g) were used. […] Each bladder was cleaned free of surrounding connective tissue and halved longitudinally. The bladder longitudinal smooth muscle, with the urothelium still attached were mounted in 25 ml organ baths containing physiological saline solution (PSS) (composition: 119.0 mM NaCl, 4.7 mM KCl, 1.2 mM MgSO4, 24.9 mM NaHCO3, 1.2 mM KH2PO4, 2.5 mM CaCl2 and 11.1 mM glucose) supplemented with 1 μM prazosin (α1-adrenoceptor antagonist) and 30 nM ICI118551 (β2-adrenoceptor antagonist), aerated with 95% O2/5% CO2 gas mix, warmed and maintained at approximately 37° C. throughout the experiment. Changes in force production were recorded using transducers. […]
EFS parameters and viability check: In initial experiments the parameters for the EFS were assessed by performing a frequency curve to determine a frequency that would give a response that was approximately 80% of the response seen to 80 mM KCl. Optimal EFS parameters were determined to be: 30 Volts, square pulse of 0.1 ms, train of 4 seconds every 120 seconds, 15 Hz. […]
Pilot studies to determine EC90 concentrations of the test compounds were performed. […] From the data obtained in these experiments, EC90 concentrations of the test compounds were determined for use in subsequent experiments. […]

beta-3 adrenoceptor [2] = biological target: T1, beta-3 adrenoceptor; test: Desensitization and washout: CCRC on EFS-induced contraction of rat bladder strips after pre-incubation with the EC90 concentration and washing with PSS
Experimental: Macroscopically normal bladders from Male CD rats (220-250 g) were used. […] Each bladder was cleaned free of surrounding connective tissue and halved longitudinally. The bladder longitudinal smooth muscle, with the urothelium still attached were mounted in 25 ml organ baths containing physiological saline solution (PSS) (composition: 119.0 mM NaCl, 4.7 mM KCl, 1.2 mM MgSO4, 24.9 mM NaHCO3, 1.2 mM KH2PO4, 2.5 mM CaCl2 and 11.1 mM glucose) supplemented with 1 μM prazosin (α1-adrenoceptor antagonist) and 30 nM ICI118551 (β2-adrenoceptor antagonist), aerated with 95% O2/5% CO2 gas mix, warmed and maintained at approximately 37° C. throughout the experiment. Changes in force production were recorded using transducers. After mounting, the bladder halves were allowed to equilibrate for at least 30 min before they were set to a stable tension of approximately 1.0 g. The tissue was then allowed to equilibrate over at least a 60 min period with washes every 15 min.
EFS parameters and viability check: In initial experiments the parameters for the EFS were assessed by performing a frequency curve to determine a frequency that would give a response that was approximately 80% of the response seen to 80 mM KCl. Optimal EFS parameters were determined to be: 30 Volts, square pulse of 0.1 ms, train of 4 seconds every 120 seconds, 15 Hz. This frequency was then used to stimulate the tissue for all subsequent experiments. The viability of bladder strips was tested by stimulating the tissue with EFS for minimum of ten min.
The bladder muscle strips were incubated with the EC90 determined for each test compound in the pilot studies, for a period of 1 or 3 hr. Following compound incubation, the tissues were washed with PSS for a period of 1, 3 or 6 hr, with washes approximately every 15 min, to remove the drug. At the end of the final wash period the tissues were stimulated with EFS, and left to equilibrate for at least 30 min. -A CCRC was then performed in each tissue.

[3] = biological target: T2, murine adipocyte beta-3 adrenoceptor (Mus musculus, UniProt P25962); conditions: literature report, cited from earlier work
T2 construct: host or cells: murine adipocytes (no further detail)
T2 sequence (P25962 whole entry): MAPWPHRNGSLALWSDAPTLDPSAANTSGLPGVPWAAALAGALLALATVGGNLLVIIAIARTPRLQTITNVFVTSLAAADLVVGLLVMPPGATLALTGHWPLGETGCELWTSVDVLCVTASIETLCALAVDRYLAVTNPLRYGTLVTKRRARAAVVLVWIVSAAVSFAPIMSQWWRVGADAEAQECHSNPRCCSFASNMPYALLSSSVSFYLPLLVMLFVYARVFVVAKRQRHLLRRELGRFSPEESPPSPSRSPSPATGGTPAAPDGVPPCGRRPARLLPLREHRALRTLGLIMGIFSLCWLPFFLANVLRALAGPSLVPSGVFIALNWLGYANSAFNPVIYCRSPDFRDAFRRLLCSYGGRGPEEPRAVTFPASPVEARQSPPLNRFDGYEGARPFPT

[4] = three hr incubation with EC90, one hr of washing
[5] = three hr incubation, low and mid-concentration range

## Nc1nc(CC(=O)Nc2ccc(CCNC[C@H](O)c3ccccc3)cc2)cs1 [mirabegron, (R)-2-(2-aminothiazol-4-yl)-N-(4-(2-((2-hydroxy-2-phenylethyl)amino)ethyl)phenyl)acetamide]
beta-3 adrenoceptor [1]
  EC90: 15.3 µM
beta-3 adrenoceptor [2]; following 1 or 3 hr of washout
  Concentration range in which the EFS-mediated response was potentiated: 10 to 1000 nM
beta-3 adrenoceptor [2]; one hr incubation with EC90, one hr of washing with PSS
  Responses to the agonist (CCRC, reduction of EFS-induced contraction) vs vehicle-incubated tissue: significantly attenuated
beta-3 adrenoceptor [2]; one hr incubation with EC90, three hr of washing, higher concentrations
  Responses to the agonist (CCRC, reduction of EFS-induced contraction) vs vehicle-incubated tissue: significantly attenuated
beta-3 adrenoceptor [2]; one hr incubation, lower and mid-concentration range
  Potentiation of EFS-induced contraction from baseline: marked potentiation of EFS-induced contraction
beta-3 adrenoceptor [2]; [4]
  Responses to the agonist (CCRC, reduction of EFS-induced contraction) vs vehicle-incubated tissue: significantly attenuated
beta-3 adrenoceptor [2]; three hr incubation with EC90, three hr of washing, highest concentrations
  Responses to the agonist (CCRC, reduction of EFS-induced contraction) vs vehicle-incubated tissue: significantly attenuated
beta-3 adrenoceptor [2]; [5]
  Potentiation of EFS-induced contraction from baseline: marked potentiation of EFS-induced contraction

## C[C@H](Cc1ccc2c(c1)OC(C(=O)[O-])(C(=O)[O-])O2)NC[C@H](O)c1cccc(Cl)c1.[Na+].[Na+] [CL-316,243]
beta-3 adrenoceptor [1]
  EC90: 0.042 µM
beta-3 adrenoceptor [2]; [4]
  Responses to the agonist (CCRC, reduction of EFS-induced contraction) vs vehicle-incubated tissue: significantly attenuated
beta-3 adrenoceptor [2]; [5]
  Potentiation of EFS-induced contraction from baseline: not observed
[3]; murine adipocytes
  Functional response following prolonged exposure to the beta-3 agonist: attenuated
[3]
  Effect on murine adipocyte beta-3 adrenoceptor: down-regulation
